Data taken from patent publication US4746728A, “8-glycine, des-19-leucine-calcitonin” (Armour Pharmaceutical Company, priority 1986, dated 1988).
Positions of bridges follow the written chain, without caps; N, C: chain ends. Residues, ends and D or L forms follow the SMILES beside them. No end group written: not given here.

Columns and labels:
[1] = test system: serum calcium concentration
Description: Biological Assay Of Calcitonin Analogs In Vivo
Rats were divided into four groups of seven animals, and each group was assigned at random to a dose of standard or test solution. Low and high doses were chosen from the linear portion of the dose-response curve. For the salmon calcitonin standard, the values were 0.7 and 2.1 ng. peptide/100 g. body weight (BW). This dose approximates 3 and 9 MU/100 g. […] Peptides were given by subcutaneous injection (0.2 ml/100 g. BW) and blood was withdrawn 1 hour later for serum calcium determination. Sera are processed and analyzed within two hours of collection. Results were analyzed within two hours of collection.

[2] = literature values, Monikawa et al.; cited from earlier work

Q: For `CC(C)C[C@H](NC(=O)CNC(=O)[C@@H]1CSSC[C@H](N)C(=O)N[C@@H](CO)C(=O)N[C@@H](CC(N)=O)C(=O)N[C@@H](CC(C)C)C(=O)N[C@@H](CO)C(=O)N[C@@H]([C@@H](C)O)C(=O)N1)C(=O)NCC(=O)N[C@@H](CCCCN)C(=O)N[C@@H](CC(C)C)C(=O)N[C@@H](CO)C(=O)N[C@@H](CCC(N)=O)C(=O)N[C@@H](CCC(=O)O)C(=O)N[C@@H](CC(C)C)C(=O)N[C@@H](Cc1c[nH]cn1)C(=O)N[C@@H](CCCCN)C(=O)N[C@@H](CCC(N)=O)C(=O)N[C@H](C(=O)N[C@@H](Cc1ccc(O)cc1)C(=O)N1CCC[C@H]1C(=O)N[C@@H](CCCNC(=N)N)C(=O)N[C@H](C(=O)N[C@@H](CC(N)=O)C(=O)N[C@H](C(=O)NCC(=O)N[C@@H](CO)C(=O)NCC(=O)N[C@H](C(=O)N1CCC[C@H]1C(N)=O)[C@@H](C)O)[C@@H](C)O)[C@@H](C)O)[C@@H](C)O` [Gly^8, des-Leu^19 -SCT, 8-glycine, des-19-leucine-salmon calcitonin] (H-CSNLSTCGLGKLSQELHKQTYPRTNTGSGTP-NH2; disulfide 1-7), which biological potency ([1]; rat, in vivo, sc) is on record?
A: The biological potency was 11,400 IU/mg.

Q: Which “potency of the standard salmon calcitonin used” value ([1]; independently determined content of the standard) does the source give for `CC(C)C[C@H](NC(=O)[C@H](CCCCN)NC(=O)CNC(=O)[C@H](CC(C)C)NC(=O)[C@@H](NC(=O)[C@@H]1CSSC[C@H](N)C(=O)N[C@@H](CO)C(=O)N[C@@H](CC(N)=O)C(=O)N[C@@H](CC(C)C)C(=O)N[C@@H](CO)C(=O)N[C@@H]([C@@H](C)O)C(=O)N1)C(C)C)C(=O)N[C@@H](CO)C(=O)N[C@@H](CCC(N)=O)C(=O)N[C@@H](CCC(=O)O)C(=O)N[C@@H](CC(C)C)C(=O)N[C@@H](Cc1c[nH]cn1)C(=O)N[C@@H](CCCCN)C(=O)N[C@@H](CC(C)C)C(=O)N[C@@H](CCC(N)=O)C(=O)N[C@H](C(=O)N[C@@H](Cc1ccc(O)cc1)C(=O)N1CCC[C@H]1C(=O)N[C@@H](CCCNC(=N)N)C(=O)N[C@H](C(=O)N[C@@H](CC(N)=O)C(=O)N[C@H](C(=O)NCC(=O)N[C@@H](CO)C(=O)NCC(=O)N[C@H](C(=O)N1CCC[C@H]1C(N)=O)[C@@H](C)O)[C@@H](C)O)[C@@H](C)O)[C@@H](C)O` [salmon calcitonin, Salmon calcitonin] here?
A: Its value is “greater than 4,000 IU/mg”.

Q: For “eel calcitonin (CSNLSTCVLGKLSQELHKLQTYPRTDVGAGTP; ends and bridges not checked; cysteine pairing not given here; UniProt P01262 1-32, looked up) [synthetic eel calcitonin, natural 32-amino-acid calcitonin peptide]”, which hypocalcemic potency [2] is on record?
A: The hypocalcemic potency was “around 4300 IU/mg”.
